Where two headings read alike, the source gives them in different places.
Key:
OVCAR3 cells = assay: Cell proliferation activity test (CyQUANT Direct); assay type: cell-based; conditions: 3 days, 0.2% DMSO, CyQUANT fluorescence
Experimental: Materials and Cells: OVCAR3 cells were purchased from Nanjing Cobioer Biosciences Co., Ltd. RPMI-1640 medium, fetal bovine serum, and the CyQUANT Direct Cell Proliferation Assay kit were purchased from Thermo Fisher Scientific, USA; 96-well cell culture plates were sourced from Corning, USA.
Cell Culture: OVCAR3 cells were cultured with RPMI-1640 medium containing 10% fetal bovine serum and incubated in a 5% CO2 incubator at 37°C. Only cells in the logarithmic growth phase could be used for the test.
OVCAR3 cells were inoculated into a 96-well cell culture plate at 90 µL per well and incubated overnight in a 5% CO2 incubator at 37°C. The compound powder was dissolved in DMSO to prepare a stock solution of 10 mM. Then gradient dilution was performed for the compounds in the microplate to achieve a final concentration of 0-10 µM. 10 µL of cell culture medium containing compounds was added to each well to make the final DMSO content 0.2%. The cell plates were incubated in a 5% CO2 incubator at 37°C for 3 days. 100 µL of CyQUANT detection reagent was added to each well, reacted at 37°C for 60 min, and fluorescence detection was performed using the PerkinElmer Envision.

HT29 cells = assay: CyQuant cell proliferation activity test; assay type: cell-based; conditions: HT29 at 2000 cells per well, 3 days, 0.2% DMSO, XLFIT
Experimental: Materials and Cells: HT29 cells were purchased from Nanjing Cobioer Biosciences Co., Ltd.; RPMI-1640 medium, fetal bovine serum, Trypsin-EDTA (0.25%), 96-well plates, and CyQuant reagents were purchased from ThermoFisher (USA); DMSO was purchased from SIGMA (USA).
Cell Culture: HT29 cells were cultured with RPMI-1640 containing 10% fetal bovine serum under the condition of 37°C and 5% CO2. Only cells in the logarithmic growth phase could be used for the test.
Cell Proliferation Activity Test: CyQuant reagent was used to detect the proliferation inhibitory activity of compounds on HT29 cells. The cell density was adjusted, and 100 µL per well was inoculated into a 96-well plate (HT29 at 2000 cells per well), then incubated overnight at 37°C and 5% CO2. Add compounds of various target concentrations (initial concentration of 3000 nM, 3-fold dilution, 9 concentration gradients), and make the DMSO content 0.2%. The cell plate was incubated at 37°C in 5% CO2 for 3 days. CyQuant reagent was added and incubated for 1 h. The plates were read by Envision, and IC50 was calculated using XLFIT.

[1] = biological target: T1, Human KIF18A (amino acid sequence 1-417) (Homo sapiens, UniProt Q8NI77); assay: Enzymatic activity test (ADP-Glo, microtubule-stimulated ATPase); assay type: biochemical; conditions: 60 µg/mL microtubules, 25 µM ATP, 2.5 nM KIF18A protein, 120 min at ambient temperature, chemiluminescence
T1 construct: purchased Viva Biotech (Shanghai) Ltd
T1 sequence (Q8NI77 1-417): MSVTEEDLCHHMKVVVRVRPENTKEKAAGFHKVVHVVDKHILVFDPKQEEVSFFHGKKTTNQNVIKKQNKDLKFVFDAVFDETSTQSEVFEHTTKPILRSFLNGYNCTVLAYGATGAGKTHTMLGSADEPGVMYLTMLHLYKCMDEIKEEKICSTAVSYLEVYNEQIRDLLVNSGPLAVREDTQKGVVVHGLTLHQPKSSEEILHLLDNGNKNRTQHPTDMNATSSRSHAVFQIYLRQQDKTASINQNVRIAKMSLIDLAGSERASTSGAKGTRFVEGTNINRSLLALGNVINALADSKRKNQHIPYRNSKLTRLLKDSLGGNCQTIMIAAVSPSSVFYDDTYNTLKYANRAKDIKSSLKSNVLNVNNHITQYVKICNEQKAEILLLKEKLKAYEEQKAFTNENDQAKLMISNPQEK
Experimental: Materials: Human KIF18A (amino acid sequence 1-417) was purchased from Viva Biotech (Shanghai) Ltd.; the ADP-Glo™ protein kinase kit was acquired from Promega, USA; tubulin was sourced from Cytoskeleton, USA; and the 384-well assay plate and Envision multifunctional microplate reader were obtained from PerkinElmer, USA.
Enzymatic Activity Test: The compound powder was dissolved in DMSO to prepare a stock solution of 10 mM. Then gradient dilution was performed for the compounds in the microplate to achieve a final concentration of 0-10 µM. Then, 2.5 µL each of tubulin, compound, ATP, and KIF18A protein were added to the microplate in sequence for reaction at ambient temperature for 120 min. The final concentrations in the enzyme reaction were 60 µg/mL for microtubules, 25 µM for ATP, and 2.5 nM for KIF18A protein. After the enzyme reaction, 10 µL of ADP-GLO reaction reagent was added to each well and incubated at room temperature for 30 min. After that, 20 µL of detection reagent was added to each well and incubated at room temperature for 30 min in the dark. Finally, chemiluminescence detection was performed using the PerkinElmer Envision.

| Molecule | IC50 (OVCAR3 cells; Homo sapiens, OVCAR-3, 72 h) | IC50 (HT29 cells; Homo sapiens, HT-29, 72 h) | IC50 ([1]; read-out: KIF18A IC50) | IC50 (OVCAR3 cells) | IC50 (HT29 cells; read-out: HT-29 IC50) | IC50 ([1]; KIF18A IC50 nM) |
| --- | --- | --- | --- | --- | --- | --- |
| Cc1cc2nc(n1)N1CCC(F)(F)C(/C=C\CC3CCN(CC3)c3cc(NS(=O)(=O)C(C)CO)c4c(c3C(=O)N2)CCC4=O)C1 (stereo not drawn) [Example 11, (Z)-N-(1^4,1^4-difluoro-2^6-methyl-5^1,4-dioxo-5^2,5^3-dihydro-5^1hydro-3-aza-2(2,4)-pyrimidin-1(1,3),6(1,4)-dipiperidin-5(4, 5)-indenocyclonofin-8-en-5^7-yl)-1-hydroxypropane-2-sulfonamide] | 25 nM | 33 nM | 76 nM | – | – | – |
| Cc1cc2nc(n1)N1CCC(F)(F)C(/C=C\CC3CCN(CC3)c3cc(NS(=O)(=O)CCO)c4ccccc4c3C(=O)N2)C1 (single isomer, unassigned) [Example 1A, (cis)-N-(1^4,1^4-difluoro-2^6-methyl-4-oxo-3-aza-2(2,4)-pyrimidin-1(1,3),6(1,4)-dipiperidin-5(1,2)-naphthacyclonon-8-en-5^4-yl)-2-hydroxyethane-1-sulfonamide] | – | – | > 3000 nM | 2790 nM | 2790 nM | – |
| Cc1cc2nc(n1)N1CCC(F)(F)C(CCc3ccc(cc3)-c3cc(NS(=O)(=O)CCO)ccc3C(=O)N2)C1 (stereo not drawn) [Example 45, N-(2^4,2^4-difluoro-1^6-methyl-7-oxo-8-aza-1(2,4)-pyrimidin-2(1,3)-piperidin-5(1,4),6(1,2)-dibenzylcycloophene-6^5-yl)-2-hydroxyethane-1-sulfonamide] | 77 nM | 100 nM | 114 nM | – | – | – |
| Cc1cc2nc(n1)N1CCC(F)(F)C(/C=C\CC3CCN(CC3)c3cc(NS(=O)(=O)CCO)c4ccccc4c3C(=O)N2)C1 (single isomer, unassigned) [Example 1B, (cis)-N-(1^4,1^4-difluoro-2^6-methyl-4-oxo-3-aza-2(2,4)-pyrimidin-1(1,3),6(1,4)-dipiperidin-5(1,2)-naphthacyclonon-8-en-5^4-yl)-2-hydroxyethane-1-sulfonamide] | – | – | 220 nM | 22 nM | 22 nM | – |
| CCS(=O)(=O)Nc1cc2c(c3c1C(=O)CC3)C(=O)Nc1cc(C)nc(n1)N1CCC(F)(F)C(C=CCC3CCN2CC3)C1 (stereo not drawn) [Example 18, N-(1^4,1^4-difluoro-2^6-methyl-5^1,4-dioxo-5^2,5^3-dihydro-5^1H-3-aza-2(2,4)-pyrimidin-1(1,3),6(1,4)-dipiperidin-5(4,5)-indenoheterocyclonon-8-en-5^7-yl)-ethanesulfonamide] | – | – | 67 nM | 38 nM | 41 nM | – |
| N-(1^4,1^4,5^1,5^1-tetrafluoro-2^6-methyl-4-dioxo-5^2,5^3-dihydro-5^1H-3-aza-2(2,4)-pyrimidin-1(1,3),6(1,4)-dipiperidin-5(4,5)-benzofurancyclononane-8-en-5^7-yl)-ethanesulfonamide [Example 20] | – | – | 410 nM | 57 nM | 69 nM | – |
| Cc1cc2nc(n1)N1CCC(F)(F)C(/C=C/CC3CCN(CC3)c3cc(NS(=O)(=O)CCO)c4ccccc4c3C(=O)N2)C1 (single isomer, unassigned) [Example 1D, (trans)-N-(1^4,1^4-difluoro-2^6-methyl-4-oxo-3-aza-2(2,4)-pyrimidin-1(1,3),6(1,4)-dipiperidin-5(1,2)-naphthacyclonon-8-en-5 ^4-yl)-2-hydroxyethane-1-sulfonamide] | – | – | 211 nM | 137 nM | 137 nM | – |
| N-(1^4,1^4-difluoro-2^6-methyl-5^1,4-dioxo-5^1,5^2,5^3,5^4-tetrahydro-3-aza-2(2,4)-pyrimidin-1(1,3),6(1,4)-dipiperidin-5(5,6)-in denoheterocyclonon-8-en-5^8-yl)-2-hydroxyethane-1-sulfonamide [Example 8] | – | – | 48 nM | 37 nM | 43 nM | – |
| Cc1cc2nc(n1)N1CCC(F)(F)C(CCCC3=CC=C(S3)c3cc(NS(=O)(=O)CCO)ccc3C(=O)N2)C1 (stereo not drawn) [Example 58, N-(1^4,1^4-difluoro-2^6-methyl-4-oxo-3-aza-2(2,4)-pyrimidin-1(1,3)-piperidin-6(2,5)-thiophene-5(1,2)-benzoazacyclononane-5^4-yl)-2-hydroxyethane-1-sulfonamide] | 116 nM | 42 nM | 67 nM | – | – | – |
| Cc1cc2nc(n1)N1CCC(F)(F)C(/C=C\Cc3ccc(cc3)-c3cc(NS(=O)(=O)CCO)ccc3C(=O)N2)C1 (stereo not drawn) [Example 42, N-(1^4,1^4-difluoro-2^6-methyl-4-oxo-3-aza-2(2,4)-pyrimidin-1(1,3)-piperidin-5(1,2),6(1,4)-diphenylheterocyclonon-8-en-5^4-yl)-2-hydroxyethane-1-sulfonamide] | 136 nM | 162 nM | – | – | – | 167 nM |

The next lines start with results.

| IC50 (OVCAR3 cells; Homo sapiens, OVCAR-3, 72 h) | IC50 (HT29 cells; Homo sapiens, HT-29, 72 h) | IC50 ([1]; read-out: KIF18A IC50) | IC50 (OVCAR3 cells) | IC50 (HT29 cells; read-out: HT-29 IC50) | Molecule | IC50 ([1]; KIF18A IC50 nM) |
| --- | --- | --- | --- | --- | --- | --- |
| – | – | 43 nM | 25 nM | 25 nM | Cc1cc2nc(n1)N1CCC(F)(F)C(C=CCC3CCN(CC3)c3cc(NS(=O)(=O)CCO)c4c(c3C(=O)N2)CCC4=O)C1 (single isomer, unassigned) [Example 2C, N-(1^4,1^4-difluoro-2^6-methyl-5^1,4-dioxo-5^2,5^3-dihydro-5^1H-3-aza-2(2,4)-pyrimidin-1(1,3),6(1,4)-dipiperidin-5(4,5)-indenoheterocyclonon-8-en-5^7-yl)-2-hydroxyethane-1-sulfonamide] | – |
| – | – | 219 nM | 22 nM | 23 nM | N-((3^4Z, 7Z)-1^4,1^4-difluoro-2^6-methyl-3^1H-2(2,4)-pyrimidin-1(1,3),5(1,4)-dipiperidin-3(4,1)-triazole-4(1,2)-benzocyclooct-7-en-4^4-y 1)-2-hydroxyethane-1-sulfonamide [Example 81A] | – |
| > 3000 nM | > 3000 nM | 307 nM | – | – | Cc1cc2nc(n1)N1CCC(F)(F)C(/C=C\CC3CCN(CC3)c3cc(NS(=O)(=O)CCO)c4c(c3C(=O)N2)OCC4=O)C1 (stereo not drawn) [Example 14B, N-(1^4,1^4-difluoro-2^6-methyl-5^3,4-dioxo-5^2,5-dihydro-3-aza-2(2,4)-pyrimidin-1(1,3),6(1,4)-dipiperidin-5(7,6)-benzofurancyclononane-8-en-5^4-yl)-2-hydroxyethane-1-sulfonamide] | – |
| – | – | 35 nM | 8 nM | 9 nM | Cc1cc2nc(n1)N1CCC(F)(F)C(C=CCC3CCN(CC3)c3cc(NS(=O)(=O)CCO)c4c(c3C(=O)N2)CCC4=O)C1 (single isomer, unassigned) [Example 2A, N-(1^4,1^4-difluoro-2^6-methyl-5^1,4-dioxo-5^2,5^3-dihydro-5^1H-3-aza-2(2,4)-pyrimidin-1(1,3),6(1,4)-dipiperidin-5(4,5)-indenoheterocyclonon-8-en-5^7-yl)-2-hydroxyethane-1-sulfonamide] | – |

Source: patent EP4772509A1, “KINESIN KIF18A INHIBITOR, AND APPLICATION THEREOF” (Shanghai Apeiron Therapeutics Company Limited, priority 2023, dated 2025)
